Laboratory results reported in PubChem BioAssay (NCI).
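Here, GI50 denotes the concentration required for 50% inhibition of growth. The concentration for full growth arrest is given as TGI.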

Experiments:
Assay in all cases: NCI tumour cell line growth inhibition, 384-well format
CCRF-CEM leukemia = tested on: CCRF-CEM leukemia
HCC-2998 colon = tested on: HCC-2998 colon
HCT-116 colon = tested on: HCT-116 colon
HOP-92 NSCLC = tested on: HOP-92 NSCLC
LOX IMVI melanoma = tested on: LOX IMVI melanoma
MALME-3M melanoma = tested on: MALME-3M melanoma
MCF7 breast = tested on: MCF7 breast
NCI/ADR-RES ovarian = tested on: NCI/ADR-RES ovarian
OVCAR-4 ovarian = tested on: OVCAR-4 ovarian
OVCAR-8 ovarian = tested on: OVCAR-8 ovarian
SF-268 CNS = tested on: SF-268 CNS
SK-OV-3 ovarian = tested on: SK-OV-3 ovarian
UACC-62 melanoma = tested on: UACC-62 melanoma

For `COc1cc2c(Nc3cc(Cl)c(OC)c(Cl)c3)c(C#N)cnc2cc1OCCCN1CCN(C)CC1`, the GI50 (CCRF-CEM leukemia) was 239 nM, the TGI (CCRF-CEM leukemia) was 486 nM and the GI50 (HCC-2998 colon) was 1060 nM. The TGI (HCC-2998 colon) was 2260 nM, the GI50 (HCT-116 colon) was 329 nM and the TGI (HCT-116 colon) was 1200 nM. For the same molecule, the GI50 (HOP-92 NSCLC) was 465 nM, the TGI (HOP-92 NSCLC) was 1490 nM and the GI50 (LOX IMVI melanoma) was 1230 nM. It also gave a TGI (LOX IMVI melanoma) of 2490 nM, a GI50 (MALME-3M melanoma) of 296 nM and a TGI (MALME-3M melanoma) of 1160 nM. It also gave a GI50 (MCF7 breast) of 451 nM, a TGI (MCF7 breast) of 1860 nM and a GI50 (NCI/ADR-RES ovarian) of 1830 nM. For the same molecule, the TGI (NCI/ADR-RES ovarian) was 3640 nM, the GI50 (OVCAR-4 ovarian) was 808 nM and the TGI (OVCAR-4 ovarian) was 2170 nM. It also gave a GI50 (OVCAR-8 ovarian) of 389 nM, a TGI (OVCAR-8 ovarian) of 1530 nM and a GI50 (SF-268 CNS) of 604 nM. It also gave a TGI (SF-268 CNS) of 2060 nM, a GI50 (SK-OV-3 ovarian) of 167 nM and a TGI (SK-OV-3 ovarian) of 1420 nM. For the same molecule, the GI50 (UACC-62 melanoma) was 1230 nM and the TGI (UACC-62 melanoma) was 2480 nM.
